Data from paper PMC7983974 (Basic & Clinical Pharmacology & Toxicology, 2020).
Values joined by “and” are separate entries in the source; they are usually repeats but may differ in a detail not shown here. Equal entries are not always repeated. Where two headings read alike, the source gives them in different places. Blank lines part the entries; values can stand above or below the compound they belong to.

What was measured:
[1] = target: T1, UGT-mediated glucuronidation of molidustat in human liver microsomes (HLMs) (Homo sapiens, UniProt P22309); assay: Inhibition of M1 formation from molidustat in pooled human liver microsomes; format: in vitro ADME; conditions: pooled HLMs 0.3 mg/mL, molidustat 5 µmol/L, 30 min, N=1; Table 1
T1 sequence (P22309 26-533): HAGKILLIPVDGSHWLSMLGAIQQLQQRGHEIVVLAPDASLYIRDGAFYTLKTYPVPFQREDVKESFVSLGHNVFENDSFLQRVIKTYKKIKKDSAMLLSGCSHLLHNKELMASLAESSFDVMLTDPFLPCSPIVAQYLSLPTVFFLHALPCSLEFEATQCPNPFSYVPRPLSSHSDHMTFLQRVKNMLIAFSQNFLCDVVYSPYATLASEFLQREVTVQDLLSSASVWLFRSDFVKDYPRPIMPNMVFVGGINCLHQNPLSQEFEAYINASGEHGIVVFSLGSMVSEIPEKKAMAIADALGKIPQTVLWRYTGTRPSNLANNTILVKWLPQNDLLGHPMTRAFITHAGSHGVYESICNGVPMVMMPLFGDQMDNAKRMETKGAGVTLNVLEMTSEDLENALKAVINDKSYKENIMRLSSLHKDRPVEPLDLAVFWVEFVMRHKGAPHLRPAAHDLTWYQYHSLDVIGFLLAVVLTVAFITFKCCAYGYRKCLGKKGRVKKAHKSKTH

[2] = system: molidustat glucuronidation (clearance); assay: In vitro-in vivo scaling: predicted increase in molidustat AUC; design: species or system human; conditions: fm 0.9; unbound hepatic inlet concentration, ka 0.1 min^−1
[3] = target: T2, UGT-mediated glucuronidation of molidustat (M1 formation) (Homo sapiens, UniProt P22309); assay: Inhibition of M1 formation from molidustat in pooled human liver microsomes; format: in vitro ADME; conditions: human, pooled human liver microsomes, probe molidustat 5 µmol/L (formation of M1), IC50, pooled HLMs 0.3 mg/mL, N=1, Table 1
T2 sequence (P22309 26-533): T1 sequence (P22309 26-533)

[4] = system: pooled human liver microsomes; assay: Isoform-specific UGT inhibitors on M1 formation in human liver microsomes; format: in vitro ADME; conditions: inhibitor 10 µmol L^−1; for inhibitory activity on M1 formation: liver, intestine and kidney microsomes
[5] = cited from earlier work
[6] = system: pooled human intestine microsomes; assay: Isoform-specific UGT inhibitors on M1 formation in human intestine microsomes; format: in vitro ADME; conditions: inhibitor 10 µmol L^−1; molidustat 4.9 µmol L^−1; n = 2
[7] = system: pooled human kidney microsomes; assay: Isoform-specific UGT inhibitors on M1 formation in human kidney microsomes; format: in vitro ADME; conditions: inhibitor 10 µmol L^−1; molidustat 4.9 µmol L^−1; n = 2
[8] = format: in vivo, human; conditions: for t max: n = 13, median and range
[9] = (Molidustat + atazanavir)/molidustat, ANOVA

IC50 [1]: 10.8 µM
Compound: C#C[C@]1(O)CC[C@H]2[C@@H]3CCc4cc(O)ccc4[C@H]3CC[C@@]21C [17a‐Ethynylestradiol]

AUCRinlet, ka 0.1 min^−1 (estimated increase in molidustat AUC) [2]: more than fivefold
Compound: COC(=O)N[C@H](C(=O)N[C@@H](Cc1ccccc1)[C@@H](O)CN(Cc1ccc(-c2ccccn2)cc1)NC(=O)[C@@H](NC(=O)OC)C(C)(C)C)C(C)(C)C [Atazanavir]

AUCRinlet, ka 0.1 min^−1 (estimated increase in molidustat AUC) [2]: more than fivefold | IC50 at 30 min [3]: 0.13 µM
Compound: C#Cc1cccc(Nc2ncnc3cc(OCCOC)c(OCCOC)cc23)c1 [Erlotinib]

IC50 [1]: 96.1 µM
Compound: Cc1ccc(C)c(OCCCC(C)(C)C(=O)O[C@@H]2O[C@H](C(=O)O)[C@@H](O)[C@H](O)[C@H]2O)c1 [Gemfibrozil glucuronide]

IC50 at 30 min [3]: 16 µM
Compound: Cc1cccc(Nc2ccccc2C(=O)O)c1C [Mefenamic acid]
inhibitory activity on M1 formation [4]: none or very little activity

AUCRinlet, ka 0.1 min^−1 (estimated increase in molidustat AUC) [2]: more than fivefold | IC50 at 30 min [3]: 0.17 µM
Compound: Cc1cn(-c2cc(NC(=O)c3ccc(C)c(Nc4nccc(-c5cccnc5)n4)c3)cc(C(F)(F)F)c2)cn1 [Nilotinib]

IC50 at 30 min [3]: 1.7 µM
Compound: COc1ccc(/C=C/C(=O)Nc2ccccc2C(=O)O)cc1OC [Tranilast]

Compound: Cc1c(F)cccc1NC(=O)Nc1ccc(Cl)c(S(=O)(=O)[C@H]2CCCNC2)c1O [danirixin]
drug excreted as glucuronides [5]: approximately 90% | recovered as directly conjugated parent compound [5]: 80%

M1 formation in % of control in microsomal tissue, Intestine [6]: 106.0% | M1 formation in % of control in microsomal tissue, Kidney [7]: 102.4% | M1 formation in % of control in microsomal tissue, Liver ([4]; molidustat 4.9 µmol L^−1, n = 2): 104.7%
Compound: Hecogenin
inhibitory activity on M1 formation [4]: none or very little activity

t max ([8]; 25 mg molidustat + atazanavir 400 mg qd for 5 days): 2.0 (1.5‐4.0) H | t max ([8]; 25 mg molidustat alone): 2.0 (1.0‐3.0) H | Point estimate parameter ratio, AUC [8, 9]: 0.85 and 0.8472 | Point estimate parameter ratio, AUC(0‐tlast) [8, 9]: 0.8470 | Point estimate parameter ratio, C max [8, 9]: 0.80 and 0.8002 | reduction in systemic exposure to the glucuronide M1 with atazanavir ([8]; human, in vivo): −15% | exposure to M1 in the presence of atazanavir ([8]; relative to molidustat alone): approximately 85%
Compound: Molidustat glucuronide [M1]
